Patent US8933039B2 (NPS Pharmaceuticals, Inc., priority 1995, dated 2015)
Non-standard residues stand in square brackets, D forms with d. Residues, ends and D or L forms follow the SMILES beside them. Met(O) = CS(=O)CC[C@H](N)C(=O)O; Nle = CCCC[C@H](N)C(=O)O

Tested on: CD1 mice
Assay: Intestinotrophic activity assessment: small bowel weight in mice
Format: in vivo
Details: for % Activity (small bowel inducing activity relative to native rat GLP-2(1-33) = 100%): mice, as Example 4; for % Increase in small bowel weight: CD1 mice, 2.5 μg peptide s.c. b.i.d. in PBS, sacrificed 10 or 14 days, relative to vehicle only
Procedure: Recipients were CD1 mice obtained from Charles River Laboratory (Ontario, Canada). The CD1 mice were aged-matched females at time of injection (n=3-4 per group), 6 weeks of age, unless otherwise specified. The animals were allowed a minimum of 24 hours to acclimatize to the laboratory facility before the initiation of each experiment. Animals were identified by ear punch. The mice were not restricted by diet or activity during the experiments. The light/dark cycle was 12 hours, between 6 pm to 6 am. Controls were age- and sex-matched (n=3-4) animals. Mice were injected subcutaneously, twice a day (b.i.d.), with 2.5 μg peptide in a total volume of 0.5 cc of PBS and were monitored daily in the laboratory facility. Animals were sacrificed 10 or 14 days after injection, and were fasted at least 20 hours before sacrifice.
The mice were anaesthetised with CO2 and exsanguinated by cardiac puncture. Blood was collected in 75 μl of TED (Trasysol; EDTA (5000 KIU/ml: 1.2 mg/ml; Diprotin-A), and the blood was centrifuged at 14 k×g for 5 minutes and the plasma was stored at −70 prior to analysis. The small bowel was removed from the peritoneal cavity, from pylorus to cecum, cleaned weighed and measured. For comparative purpose, sections from each animal were obtained from the identical anatomical position. Fragments each measuring 1.5-2.0 cm in length were obtained 8±2 cm, 18±2 cm, 32±2 cm from pylorus for histomorphometry representing proximal jejunum, distal jejunum and distal ileum. Each small bowel fragment was opened longitudinally on its antimesenteric border in a tissue block and then placed on 10% formalin (vol./vol.) overnight, then transferred to 70% […].
Percentage change in small bowel weight was calculated by dividing the mean change in bowel weight of analog treated mice, relative to mice treated with vehicle only, by the mean bowel weight of mice treated with vehicle only, and multiplying this figure by 100.
Experiments assessing the small bowel inducing activity of various analogs was repeated as described above for Example 4. In these experiments, the small bowel inducing activity of each analog in mice was calculated relative to that of native rat GLP-2(1-33) (expressed as 100% of activity). Resistance of analogs to DPP-IV cleavage was performed as described above in Example 3.

Compound: H-HADGSFSDEMNTILDNLAARDFINWLIQTKITN-OH [[Asn33]hGLP-2(1-33)]
- % Activity (small bowel inducing activity relative to native rat GLP-2(1-33) = 100%): 91%

Compound: H-HADGSFSDEMNTILDNLATRDFINWLIQTKITD-NH2 [ratGLP-2(1-33)amide]
- % Increase in small bowel weight: 23%
- % Activity (small bowel inducing activity relative to native rat GLP-2(1-33) = 100%): 56%

Compound: CCCC[C@H](NC(=O)[C@H](CCC(=O)O)NC(=O)[C@H](CC(=O)O)NC(=O)[C@H](CO)NC(=O)[C@H](Cc1ccccc1)NC(=O)[C@H](CO)NC(=O)CNC(=O)[C@H](CC(=O)O)NC(=O)[C@H](C)NC(=O)[C@@H](N)Cc1c[nH]cn1)C(=O)N[C@@H](CC(N)=O)C(=O)N[C@H](C(=O)N[C@H](C(=O)N[C@@H](CC(C)C)C(=O)N[C@@H](CC(=O)O)C(=O)N[C@@H](CC(N)=O)C(=O)N[C@@H](CC(C)C)C(=O)N[C@@H](C)C(=O)N[C@H](C(=O)N[C@@H](CCCNC(=N)N)C(=O)N[C@@H](CC(=O)O)C(=O)N[C@@H](Cc1ccccc1)C(=O)N[C@H](C(=O)N[C@@H](CC(N)=O)C(=O)N[C@@H](Cc1c[nH]c2ccccc12)C(=O)N[C@@H](CC(C)C)C(=O)N[C@H](C(=O)N[C@@H](CCC(N)=O)C(=O)N[C@H](C(=O)N[C@@H](CCCCN)C(=O)N[C@H](C(=O)N[C@H](C(=O)N[C@@H](CC(=O)O)C(=O)O)[C@@H](C)O)[C@@H](C)CC)[C@@H](C)O)[C@@H](C)CC)[C@@H](C)CC)[C@@H](C)O)[C@@H](C)CC)[C@@H](C)O [[Nlel0]ratGLP-2(1-33), [Nle^10]ratGLP-2(1-33)] (H-HADGSFSDE[Nle]NTILDNLATRDFINWLIQTKITD-OH)
- % Increase in small bowel weight: 52%
- % Activity (small bowel inducing activity relative to native rat GLP-2(1-33) = 100%): 100%

Compound: H-HADGSFSDEMNTILDNLATRDFINWLIQTK-OH [ratGLP-2(1-30)]
- % Activity (small bowel inducing activity relative to native rat GLP-2(1-33) = 100%): 23%

Compound: H-HGDGSFSDEMNTILDNLAARDFINALIQTKITD-OH [[Gly2,Ala25]hGLP-2(1-33)]
- % Activity (small bowel inducing activity relative to native rat GLP-2(1-33) = 100%): 18%

Compound: H-GSFSDEMNTILDNLATRDFINWLIQTKITD-OH [ratGLP-2(4-33)]
- % Activity (small bowel inducing activity relative to native rat GLP-2(1-33) = 100%): 6%

Compound: H-HGDGSFSAEMNTILDNLAARDFINWLIQTKITD-OH [[Gly2,Ala8]hGLP-2(1-33)]
- % Increase in small bowel weight: 33%
- % Activity (small bowel inducing activity relative to native rat GLP-2(1-33) = 100%): 120%

Compound: H-HADGSFSDEMNTILDNLAAQDFINWLIQTKITD-OH [[Gln20]hGLP-2(1-33)]
- % Activity (small bowel inducing activity relative to native rat GLP-2(1-33) = 100%): 80%

Compound: H-HGDGSFSDEMNTILDNLAAADFINWLIQTKITD-OH [[Gly2,Ala20]hGLP-2(1-33)]
- % Increase in small bowel weight: 46%
- % Activity (small bowel inducing activity relative to native rat GLP-2(1-33) = 100%): 105%

Compound: H-HGDGSFSDEMNTILDNLAARDFINWLAQTKITD-OH [[Gly2,Ala27]hGLP-2(1-33)]
- % Increase in small bowel weight: 22%
- % Activity (small bowel inducing activity relative to native rat GLP-2(1-33) = 100%): 82%

Compound: H-HGDGSFSDEMNTILDNLAARDFINWLIATKITD-OH [[Gly2,Ala28]hGLP-2(1-33)]
- % Increase in small bowel weight: 31%
- % Activity (small bowel inducing activity relative to native rat GLP-2(1-33) = 100%): 130%

Compound: H-HGDGSFSDEMNTILDALAARDFINWLIQTKITD-OH [[Gly2,Ala16]hGLP-2(1-33)]
- % Increase in small bowel weight: 36%
- % Activity (small bowel inducing activity relative to native rat GLP-2(1-33) = 100%): 130%

Compound: CC[C@H](C)[C@H](NC(=O)[C@H](Cc1ccccc1)NC(=O)[C@H](CC(=O)O)NC(=O)[C@H](CCCNC(=N)N)NC(=O)[C@@H](NC(=O)[C@H](C)NC(=O)[C@H](CC(C)C)NC(=O)[C@H](CC(N)=O)NC(=O)[C@H](CC(=O)O)NC(=O)[C@H](CC(C)C)NC(=O)[C@@H](NC(=O)[C@@H](NC(=O)[C@H](CC(N)=O)NC(=O)[C@H](CC[S+](C)[O-])NC(=O)[C@H](CCC(=O)O)NC(=O)[C@H](CC(=O)O)NC(=O)[C@H](CO)NC(=O)[C@H](Cc1ccccc1)NC(=O)[C@H](CO)NC(=O)CNC(=O)[C@H](CC(=O)O)NC(=O)[C@H](C)NC(=O)[C@@H](N)Cc1c[nH]cn1)[C@@H](C)O)[C@@H](C)CC)[C@@H](C)O)C(=O)N[C@@H](CC(N)=O)C(=O)N[C@@H](Cc1c[nH]c2ccccc12)C(=O)N[C@@H](CC(C)C)C(=O)N[C@H](C(=O)N[C@@H](CCC(N)=O)C(=O)N[C@H](C(=O)N[C@@H](CCCCN)C(=O)N[C@H](C(=O)N[C@H](C(=O)N[C@@H](CC(=O)O)C(=O)O)[C@@H](C)O)[C@@H](C)CC)[C@@H](C)O)[C@@H](C)CC (stereo partly shown) [[Met(O)10]ratGLP-2(1-33)] (H-HADGSFSDE[Met(O)]NTILDNLATRDFINWLIQTKITD-OH)
- % Activity (small bowel inducing activity relative to native rat GLP-2(1-33) = 100%): 18%

Compound: H-HGDGSFSDEMNTALDNLAARDFINWLIQTKITD-OH [[Gly2,Ala13]hGLP-2(1-33)]
- % Increase in small bowel weight: 18%
- % Activity (small bowel inducing activity relative to native rat GLP-2(1-33) = 100%): 67%

Compound: CC[C@H](C)[C@H](NC(=O)[C@H](Cc1ccccc1)NC(=O)[C@H](CC(=O)O)NC(=O)[C@H](CCCNC(=N)N)NC(=O)[C@H](C)NC(=O)[C@H](C)NC(=O)[C@H](CC(C)C)NC(=O)[C@H](CC(N)=O)NC(=O)[C@H](CC(=O)O)NC(=O)[C@H](CC(C)C)NC(=O)[C@@H](NC(=O)[C@@H](NC(=O)[C@H](CC(N)=O)NC(=O)[C@H](CCSC)NC(=O)[C@H](CCC(=O)O)NC(=O)[C@H](CC(=O)O)NC(=O)[C@H](CO)NC(=O)[C@H](Cc1ccccc1)NC(=O)[C@H](CO)NC(=O)CNC(=O)[C@H](CC(=O)O)NC(=O)[C@H](C)NC(=O)[C@@H](N)Cc1c[nH]cn1)[C@@H](C)O)[C@@H](C)CC)C(=O)N[C@@H](CC(N)=O)C(=O)N[C@@H](Cc1c[nH]c2ccccc12)C(=O)N[C@@H](CC(C)C)C(=O)N[C@H](C(=O)N[C@@H](CCC(N)=O)C(=O)N[C@H](C(=O)N[C@@H](CCCCN)C(=O)N[C@H](C(=O)N[C@H](C(=O)N[C@@H](CC(=O)O)C(=O)N[C@@H](Cc1ccc(O)cc1)C(=O)O)[C@@H](C)O)[C@@H](C)CC)[C@@H](C)O)[C@@H](C)CC [[Tyr34]hGLP-2(1-34)]
- % Activity (small bowel inducing activity relative to native rat GLP-2(1-33) = 100%): 135%

Compound: H-HGDGSFSDEMNAILDNLAARDFINWLIQTKITD-OH [[Gly2,Ala12]hGLP-2(1-33)]
- % Increase in small bowel weight: 18%
- % Activity (small bowel inducing activity relative to native rat GLP-2(1-33) = 100%): 67%

Compound: H-HGDGSFSDEMNTILDNLAARDFANWLIQTKITD-OH [[Gly2,Ala23]hGLP-2(1-33)]
- % Activity (small bowel inducing activity relative to native rat GLP-2(1-33) = 100%): 24%

Compound: H-HGDGSFSDEANTILDNLAARDFINWLIQTKITD-OH [[Gly2,Ala10]hGLP-2(1-33)]
- % Increase in small bowel weight: 33%
- % Activity (small bowel inducing activity relative to native rat GLP-2(1-33) = 100%): 82%

Compound: H-HADGSFSDEMNTILDNLATRDFINW-OH [ratGLP-2(1-25)]
- % Activity (small bowel inducing activity relative to native rat GLP-2(1-33) = 100%): 8%

Compound: H-HGDGSFSDEMNTILDNLAARDFINWAIQTKITD-OH [[Gly2,Ala26]hGLP-2(1-33)]
- % Activity (small bowel inducing activity relative to native rat GLP-2(1-33) = 100%): 28%

Compound: [Met SO2^10]rGLP-2
- % Increase in small bowel weight: 8%

Compound: H-HADGSFSDEMNTILDNLATKDFINWLIQTKITD-OH [[Lys20]ratGLP-2(1-33)]
- % Increase in small bowel weight: 62%
- % Activity (small bowel inducing activity relative to native rat GLP-2(1-33) = 100%): 120%

Compound: H-HGDGSFSDEMNTILDNLAARDFINWLIQTAITD-OH [[Gly2,Ala30]hGLP-2(1-33)]
- % Activity (small bowel inducing activity relative to native rat GLP-2(1-33) = 100%): 24%

Compound: H-HADGSFSDEMNTILDNLAARDFVQWLIQTKITD-OH [[Val23,Gln24]hGLP-2(1-33)]
- % Increase in small bowel weight: 36%
- % Activity (small bowel inducing activity relative to native rat GLP-2(1-33) = 100%): 82%

Compound: H-HADGTFSDEMNTILDNLAARDFINWLIQTKITD-OH [[Thr5]hGLP-2(1-33)]
- % Activity (small bowel inducing activity relative to native rat GLP-2(1-33) = 100%): 73%

Compound: H-HADGSFSDEMNTILDSRRARDFINWLIQTKITD-OH [[Ser16, Arg17, Arg18]hGLP-2(1-33)]
- % Activity (small bowel inducing activity relative to native rat GLP-2(1-33) = 100%): 59%

Compound: H-HGDGSFSDEMNTIADNLAARDFINWLIQTKITD-OH [[Gly2,Ala14]hGLP-2(1-33)]
- % Activity (small bowel inducing activity relative to native rat GLP-2(1-33) = 100%): 30%

Compound: H-HGDGSFADEMNTILDNLAARDFINWLIQTKITD-OH [[Gly2,Ala7]hGLP-2(1-33)]
- % Increase in small bowel weight: 22%
- % Activity (small bowel inducing activity relative to native rat GLP-2(1-33) = 100%): 82%

Compound: H-HGDGSFSDEMNTILDNLAARDFINWLIQTKATD-OH [[Gly2,Ala31]hGLP-2(1-33)]
- % Increase in small bowel weight: 28%
- % Activity (small bowel inducing activity relative to native rat GLP-2(1-33) = 100%): 100%

Compound: H-HGDGSFSDEMNTILDNLAARAFINWLIQTKITD-OH [[Gly2,Ala21]hGLP-2(1-33)]
- % Increase in small bowel weight: 35%
- % Activity (small bowel inducing activity relative to native rat GLP-2(1-33) = 100%): 125%

Compound: H-HGDGSASDEMNTILDNLAARDFINWLIQTKITD-OH [[Gly2,Ala6]hGLP-2(1-33)]
- % Increase in small bowel weight: 18%
- % Activity (small bowel inducing activity relative to native rat GLP-2(1-33) = 100%): 67%

Compound: H-HADGSFSDYSKYLDNLAARDFINWLIQTKITD-OH [[Tyr9, Ser10, Lys11, Tyr12, des-Ile13]hGLP-2(1-33)]
- % Increase in small bowel weight: 41%
- % Activity (small bowel inducing activity relative to native rat GLP-2(1-33) = 100%): 94%
